Experimental data from patent publication US20200239530A1, “COMPOUNDS AND METHODS OF MODULATING PROTEIN DEGRADATION” (Vividion Therapeutics, Inc., priority 2017, published 2020).
Where two headings read alike, the source gives them in different places.

Experiments:
Assay in all cases: Cysteine liganding, probe competition
Assay type in all cases: binding
UniProt O15524 = target: T1, UniProt O15524 (Homo sapiens, UniProt O15524); settings: for inhibition at 500 µM: read-out: percent_inhibition
T1 construct: 200 μL of lysate containing 5 mg/ml proteome was treated with 2 μL of 100× compound stock; endogenous in cells
T1 sequence (O15524 1-211): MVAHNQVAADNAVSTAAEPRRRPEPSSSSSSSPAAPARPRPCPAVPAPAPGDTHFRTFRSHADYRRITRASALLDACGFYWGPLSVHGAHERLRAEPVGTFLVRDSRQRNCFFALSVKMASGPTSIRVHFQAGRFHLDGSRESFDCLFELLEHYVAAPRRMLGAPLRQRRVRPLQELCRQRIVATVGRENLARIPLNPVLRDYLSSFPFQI
Excerpt: (§1) The following 96-well sample prep protocol was used for sample preparation.

UniProt Q6PJ21 = target: T2, UniProt Q6PJ21 (Homo sapiens, UniProt Q6PJ21); settings: for inhibition at 100 µM / inhibition at 500 µM: read-out: percent_inhibition
T2 construct: 200 μL of lysate containing 5 mg/ml proteome was treated with 2 μL of 100× compound stock; endogenous in cells
T2 sequence (Q6PJ21 1-355): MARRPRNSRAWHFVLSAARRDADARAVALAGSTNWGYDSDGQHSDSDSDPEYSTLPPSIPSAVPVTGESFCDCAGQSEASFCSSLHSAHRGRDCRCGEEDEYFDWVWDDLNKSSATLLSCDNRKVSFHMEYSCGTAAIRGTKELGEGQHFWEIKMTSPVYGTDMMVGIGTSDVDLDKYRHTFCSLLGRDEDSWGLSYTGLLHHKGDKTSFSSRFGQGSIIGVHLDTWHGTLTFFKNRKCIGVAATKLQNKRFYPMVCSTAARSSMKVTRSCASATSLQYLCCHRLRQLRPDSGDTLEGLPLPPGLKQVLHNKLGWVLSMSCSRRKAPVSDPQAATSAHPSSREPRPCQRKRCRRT
Excerpt: as §1

UniProt Q6AZZ1 = target: T3, UniProt Q6AZZ1 (Homo sapiens, UniProt Q6AZZ1)
T3 construct: 200 μL of lysate containing 5 mg/ml proteome was treated with 2 μL of 100× compound stock; endogenous in cells
T3 sequence (Q6AZZ1 1-485): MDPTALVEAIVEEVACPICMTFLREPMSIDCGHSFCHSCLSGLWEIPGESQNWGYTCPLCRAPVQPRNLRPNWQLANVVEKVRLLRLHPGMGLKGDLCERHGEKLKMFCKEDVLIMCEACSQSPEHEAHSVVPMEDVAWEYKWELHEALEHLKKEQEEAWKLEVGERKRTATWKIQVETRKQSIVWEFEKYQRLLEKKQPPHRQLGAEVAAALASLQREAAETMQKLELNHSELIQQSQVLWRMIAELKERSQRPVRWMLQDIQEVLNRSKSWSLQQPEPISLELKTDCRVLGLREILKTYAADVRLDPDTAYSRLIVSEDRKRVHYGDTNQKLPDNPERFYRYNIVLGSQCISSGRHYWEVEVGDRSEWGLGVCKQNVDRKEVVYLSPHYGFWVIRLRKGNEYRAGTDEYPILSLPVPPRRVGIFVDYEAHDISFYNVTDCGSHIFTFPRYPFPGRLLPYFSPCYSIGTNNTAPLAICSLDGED
Excerpt: as §1

UniProt O14508 = target: T4, UniProt O14508 (Homo sapiens, UniProt O14508); settings: for inhibition at 100 µM: read-out: percent_inhibition
T4 construct: 200 μL of lysate containing 5 mg/ml proteome was treated with 2 μL of 100× compound stock; endogenous in cells
T4 sequence (O14508 1-198): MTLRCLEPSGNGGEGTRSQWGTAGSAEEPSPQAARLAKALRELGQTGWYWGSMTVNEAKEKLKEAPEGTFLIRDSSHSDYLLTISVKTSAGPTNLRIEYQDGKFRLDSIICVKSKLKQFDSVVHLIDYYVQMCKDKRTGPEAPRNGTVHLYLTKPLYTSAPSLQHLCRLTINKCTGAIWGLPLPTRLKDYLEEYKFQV
Excerpt: as §1

UniProt Q86WC4 = target: T5, UniProt Q86WC4 (Homo sapiens, UniProt Q86WC4)
T5 construct: Cells were resuspended in cold PBS on ice and sonicated with a probe sonicator to achieve lysis; endogenous in cells
T5 sequence (Q86WC4 32-334): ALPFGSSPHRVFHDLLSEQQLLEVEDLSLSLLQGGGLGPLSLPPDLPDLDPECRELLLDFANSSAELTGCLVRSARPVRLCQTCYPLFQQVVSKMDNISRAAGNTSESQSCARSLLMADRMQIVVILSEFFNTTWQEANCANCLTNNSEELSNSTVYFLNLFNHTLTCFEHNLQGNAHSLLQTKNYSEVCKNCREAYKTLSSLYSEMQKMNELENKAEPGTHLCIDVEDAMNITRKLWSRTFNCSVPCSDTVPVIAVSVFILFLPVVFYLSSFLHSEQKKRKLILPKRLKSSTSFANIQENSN
Excerpt: as §1

UniProt Q96G25 = target: T6, UniProt Q96G25 (Homo sapiens, UniProt Q96G25)
T6 construct: Cells were resuspended in cold PBS on ice and sonicated with a probe sonicator to achieve lysis; endogenous in cells
T6 sequence (Q96G25 1-268): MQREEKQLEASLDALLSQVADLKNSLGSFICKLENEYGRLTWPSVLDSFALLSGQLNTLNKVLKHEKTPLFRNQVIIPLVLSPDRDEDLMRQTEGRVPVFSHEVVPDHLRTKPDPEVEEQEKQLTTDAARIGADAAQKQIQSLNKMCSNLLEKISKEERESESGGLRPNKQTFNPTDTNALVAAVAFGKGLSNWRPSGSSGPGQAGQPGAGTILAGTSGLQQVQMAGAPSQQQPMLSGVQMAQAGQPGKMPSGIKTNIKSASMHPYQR
Excerpt: as §1

UniProt Q9C035 = target: T7, UniProt Q9C035 (Homo sapiens, UniProt Q9C035)
T7 construct: 200 μL of lysate containing 5 mg/ml proteome was treated with 2 μL of 100× compound stock; endogenous in cells
Excerpt: as §1

[1] = read-out: KB02_500 uM_percent_inhibition
[2] = 100 uM, read-out: percent inhibition
[3] = read-out: KB05_500 uM_percent_inhibition

T7 sequence (Q9C035 whole entry, change not shown): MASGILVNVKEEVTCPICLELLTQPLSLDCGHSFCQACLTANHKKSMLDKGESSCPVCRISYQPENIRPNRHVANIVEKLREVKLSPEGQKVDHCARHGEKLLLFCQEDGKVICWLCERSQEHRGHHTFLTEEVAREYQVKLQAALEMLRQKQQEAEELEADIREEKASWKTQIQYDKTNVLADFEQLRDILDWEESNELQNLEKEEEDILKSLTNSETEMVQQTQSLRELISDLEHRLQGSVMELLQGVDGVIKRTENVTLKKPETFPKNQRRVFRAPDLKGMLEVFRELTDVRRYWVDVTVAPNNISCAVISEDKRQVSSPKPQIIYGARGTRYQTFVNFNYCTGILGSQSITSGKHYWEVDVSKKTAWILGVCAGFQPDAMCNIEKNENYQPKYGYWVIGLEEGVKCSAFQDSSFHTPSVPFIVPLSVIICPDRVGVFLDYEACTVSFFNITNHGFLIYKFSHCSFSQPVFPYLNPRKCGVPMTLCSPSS

## COc1ccc2c(c1)CCCN2C(=O)CCl [KB02]
UniProt O15524
  inhibition at 500 µM: 38%
UniProt Q6PJ21; 100 uM
  inhibition at 100 µM: 5%
UniProt Q6PJ21; 500 uM
  inhibition at 500 µM: 8%
UniProt Q6AZZ1; [1]
  inhibition at 500 µM: 44%
UniProt O14508
  inhibition at 100 µM: 14%
UniProt Q86WC4; [1]
  inhibition at 500 µM: 68%
UniProt Q96G25; 100 uM
  percent inhibition: 31%
UniProt Q96G25; [2]
  inhibition at 100 µM: 29%
UniProt Q9C035; read-out: KB02_100 uM_percent_inhibition
  inhibition at 100 µM: 13%

## C=CC(=O)N(c1ccccc1)c1ccc(Br)cc1 [KB05]
UniProt O15524
  inhibition at 500 µM: 56%
UniProt Q6PJ21; 100 uM
  inhibition at 100 µM: 4%
UniProt Q6PJ21; 500 uM
  inhibition at 500 µM: 30%
UniProt Q6AZZ1; [3]
  inhibition at 500 µM: 36%
UniProt O14508
  inhibition at 100 µM: 48%
UniProt Q86WC4; [3]
  inhibition at 500 µM: 66%
UniProt Q96G25; [2]
  inhibition at 100 µM: 10%
UniProt Q96G25; 500 uM
  percent inhibition: 40%
UniProt Q96G25; 500 uM, read-out: percent inhibition
  inhibition at 500 µM: 31%
UniProt Q9C035; read-out: KB05_100 uM_percent_inhibition
  inhibition at 100 µM: 4%

## O=C(CCl)Nc1cc(C(F)(F)F)cc(C(F)(F)F)c1 [KBO3]
UniProt O15524; 500 uM
  percent_inhibition: 35%
UniProt Q6PJ21; 100 uM
  percent_inhibition: 25%
UniProt Q6PJ21; 500 uM
  percent_inhibition: 52%
UniProt Q6AZZ1; 500 uM
  KB03_500 uM_percent_inhibition: 18%
UniProt O14508; 100 uM
  percent_inhibition: 30%
UniProt Q86WC4; 500 uM
  KB03_500 uM_percent_inhibition: 58%
UniProt Q96G25; 100 uM
  percent inhibition: 8%
UniProt Q9C035; 100 uM
  KB03_100 uM_percent_inhibition: 18%
